Measured values published in patent US7265103B2, “Substituted amino isoxazoline derivatives and their use as anti-depressants” (Janssen Pharmaceutica NV., priority 2002, dated 2007).
pIC50: −log10 of the molar value.

The molecules below were run against T1, hα2A receptor (Homo sapiens, UniProt P08913) (assay: Radioligand binding experiment for α2A-adrenergic receptor ([3H]-raulwolscine)). Conditions: CHO cell membranes with human α2A receptor, [3H]raulwolscine 1 nM; read-out: pIC50 α2A (converted).
T1 construct: expressed in transfected cells; host or cells: CHO cells
T1 sequence (P08913 1-465): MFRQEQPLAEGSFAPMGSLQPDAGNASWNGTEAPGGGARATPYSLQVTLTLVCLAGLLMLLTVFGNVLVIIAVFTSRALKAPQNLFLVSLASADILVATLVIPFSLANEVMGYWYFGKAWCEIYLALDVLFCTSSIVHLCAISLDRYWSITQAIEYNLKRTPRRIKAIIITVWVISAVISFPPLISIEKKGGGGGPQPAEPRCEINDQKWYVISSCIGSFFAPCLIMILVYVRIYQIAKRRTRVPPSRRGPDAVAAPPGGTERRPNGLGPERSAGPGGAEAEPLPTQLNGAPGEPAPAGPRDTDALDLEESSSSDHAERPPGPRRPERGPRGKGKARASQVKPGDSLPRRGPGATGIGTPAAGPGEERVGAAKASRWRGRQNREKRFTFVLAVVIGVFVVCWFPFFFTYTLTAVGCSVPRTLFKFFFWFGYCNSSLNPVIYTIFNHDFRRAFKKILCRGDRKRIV
Method: (§1) The interaction of the compounds of Formula (I) with hα2-receptors and h5-HT-transporters was assessed in in vitro radioligand binding experiments. In general, a low concentration of a radioligand with a high binding affinity for a particular receptor or transporter is incubated with a sample of a tissue preparation enriched in a particular receptor or transporter or with a preparation of cells expressing cloned human receptors in a buffered medium. During the incubation, the radioligand binds to the receptor or transporter. When equilibrium of binding is reached, the receptor bound radioactivity is separated from the non-bound radioactivity, and the receptor- or transporter-bound activity is counted. The interaction of the test compounds with the receptor is assessed in competition binding experiments. Various concentrations of the test compound are added to the incubation mixture containing the receptor- or transporter preparation and the radioligand. The test compound in proportion to its binding affinity and its concentration inhibits binding of the radioligand. The radioligand used for hα2A, hα2B and hα2C receptor binding was [^3H]-raulwolscine and for the h5-HT transporter was [^3H]paroxetine.
(§2) CHO cells, stabile transfected with human adrenergic-α2A-, -α2B or α2C receptor cDNA, were cultured in Dulbecco's Modified Eagle's Medium (DMEM)/Nutrient mixture Ham's F12 (ratio 1:1)(Gibco, Gent-Belgium) supplemented with 10% heat inactivated fetal calf serum (Life Technologies, Merelbeke-Belgium) and antibiotics (100 IU/ml penicillin G, 100 μg/ml streptomycin sulphate, 110 μg/ml pyruvic acid and 100 μg/ml L-glutamine). One day before collection, cells were induced with 5 mM sodiumbutyrate. Upon 80-90% of confluence, cells were scraped in phosphate buffered saline without Ca^2+ and Mg^2+ and collected by centrifugation at 1500×g for 10 min. The cells were homogenised in Tris-HCl 50 mM using an Ultraturrax homogenizer and centrifuged for 10 min at 23,500×g. The pellet was washed once by resuspension and rehomogenization and the final pellet was resuspended in Tris-HCl, divided in 1 ml aliquots and stored at −70° C.
(§3) Membranes were thawed and re-homogenized in incubation buffer (glycylglycine 25 mM, pH 8.0). In a total volume of 500 μl, 2-10 μg protein was incubated with [^3H]raulwolscine (NET-722) (New England Nuclear, USA) (1 nM final concentration) with or without competitor for 60 min at 25° C. followed by rapid filtration over GF/B filter using a Filtermatel 96 harvester (Packard, Meriden, Conn.). Filters were rinsed extensively with ice-cold rinsing buffer (Tris-HCl 50 mM pH 7.4). Filter-bound radioactivity was determined by scintillation counting in a Topcount (Packard, Meriden, Conn.) and results were expressed as counts per minute (cpm). Non-specific binding was determined in the presence of 1 μM oxymetazoline for hα2A- and hα2B receptors and 1 μM spiroxatrine for hα2C receptors.
(§4) Data from assays in the presence of compound were calculated as a percentage of total binding measured in the absence of test compound. Inhibition curves, plotting percent of total binding versus the log value of the concentration of the test compound, were automatically generated, and sigmoidal inhibition curves were fitted using non-linear regression. The pIC50 values of test compounds were derived from individual curves.

SMILES | IC50
COc1cc2c(cc1NC(=O)Nc1ccccc1)OCC1C2=NOC1CN1CCN(CC(C)=Cc2ccc(F)cc2)CC1 (stereo not drawn) [Compound 124] | 316 nM
COc1cc2c(cc1NCC(C)C)OCC1C2=NOC1CN1CCN(CC(C)=Cc2ccc(F)cc2)CC1 (stereo not drawn) [Compound 116] | 200 nM
CCC(C)CNc1cc2c(cc1OC)C1=NOC(CN3CCN(CC(C)=Cc4ccc(F)cc4)CC3)C1CO2 (stereo not drawn) [Compound 104] | 126 nM
COc1cc2c(cc1N(C)CCN(C)C)OCC1C2=NOC1CN1CCN(C/C(C)=C/c2ccccc2)CC1 (stereo not drawn) [Compound 11] | 2 nM
CC(=Cc1ccccc1)CN1CCN(CC2ON=C3c4ccc(NC(=O)c5ccccc5)cc4OCC32)CC1 (stereo not drawn) [Compound 55] | 5.01 nM
CCCC(C)C(=O)Nc1cc2c(cc1OC)C1=NOC(CN3CCN(CC(C)=Cc4ccc(F)cc4)CC3)C1CO2 (stereo not drawn) [Compound 113] | 79.4 nM

Further lines, results first:

IC50 | SMILES
3.16 nM | CC(=Cc1ccc(F)cc1)CN1CCN(CC2ON=C3c4ccc(N5CCC5=O)cc4OCC32)CC1 (stereo not drawn) [Compound 69]
31.6 nM | CNCCNc1ccc2c(c1)OCC1C2=NOC1CN1CCN(CC(C)=Cc2ccc(F)cc2)CC1 (stereo not drawn) [Compound 20]
25.1 nM | CC(=Cc1ccc(F)cc1)CN1CCN(CC2ON=C3c4ccc(NCC(C)O)cc4OCC32)CC1 (stereo not drawn) [Compound 132]
39.8 nM | CC(=Cc1ccc(F)cc1)CN1CCN(CC2ON=C3c4ccc(N(C)CCNC(C)C(C)C)cc4OCC32)CC1 (stereo not drawn) [Compound 110]
158 nM | CCC(C)Nc1ccc2c(c1)OCC1C2=NOC1CN1CCN(CC(C)=Cc2ccc(F)cc2)CC1 (stereo not drawn) [Compound 131]
12.6 nM | CC(=Cc1ccc(F)cc1)CN1CCN(CC2ON=C3c4ccc(N(C)CCNCC5CC5)cc4OCC32)CC1 (stereo not drawn) [Compound 118]
39.8 nM | CC(=Cc1ccc(F)cc1)CN1CCN(CC2ON=C3c4ccc(N5CCNCC5)cc4OCC32)CC1 (stereo not drawn) [Compound 136]
6.31 nM | C=CC(=O)Nc1cc2c(cc1OC)C1=NOC(CN3CCN(CC(C)=Cc4ccc(F)cc4)CC3)C1CO2 (stereo not drawn) [Compound 106]
200 nM | COc1cc2c(cc1NCC1(C)CC1)OCC1C2=NOC1CN1CCN(CC(C)=Cc2ccc(F)cc2)CC1 (stereo not drawn) [Compound 128]

The molecules below were run against T2, hα2C receptor (Homo sapiens, UniProt P18825) (assay: Radioligand binding experiment for α2C-adrenergic receptor ([3H]-raulwolscine)). Conditions: CHO cell membranes with human α2C receptor, [3H]raulwolscine 1 nM; read-out: pIC50 α2C (converted).
T2 construct: expressed in transfected cells; host or cells: CHO cells
T2 sequence (P18825 1-462): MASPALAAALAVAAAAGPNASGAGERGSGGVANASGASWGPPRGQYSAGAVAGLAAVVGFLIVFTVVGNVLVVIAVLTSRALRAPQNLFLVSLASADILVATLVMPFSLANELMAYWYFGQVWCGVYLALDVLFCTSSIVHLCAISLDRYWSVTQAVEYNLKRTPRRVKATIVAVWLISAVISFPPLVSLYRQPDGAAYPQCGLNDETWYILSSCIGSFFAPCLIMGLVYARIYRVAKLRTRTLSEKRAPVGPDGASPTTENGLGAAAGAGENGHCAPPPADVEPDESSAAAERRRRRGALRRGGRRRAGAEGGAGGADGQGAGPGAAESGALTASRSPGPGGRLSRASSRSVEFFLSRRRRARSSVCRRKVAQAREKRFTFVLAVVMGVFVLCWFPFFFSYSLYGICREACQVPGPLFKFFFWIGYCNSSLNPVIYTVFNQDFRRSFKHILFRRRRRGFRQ
Method: as §1, §2, §3, §4

SMILES | IC50
COc1cc2c(cc1NC(=O)Nc1ccccc1)OCC1C2=NOC1CN1CCN(CC(C)=Cc2ccc(F)cc2)CC1 (stereo not drawn) [Compound 124] | 158 nM
COc1cc2c(cc1NCC(C)C)OCC1C2=NOC1CN1CCN(CC(C)=Cc2ccc(F)cc2)CC1 (stereo not drawn) [Compound 116] | 158 nM
CCC(C)CNc1cc2c(cc1OC)C1=NOC(CN3CCN(CC(C)=Cc4ccc(F)cc4)CC3)C1CO2 (stereo not drawn) [Compound 104] | 126 nM
COc1cc2c(cc1N(C)CCN(C)C)OCC1C2=NOC1CN1CCN(C/C(C)=C/c2ccccc2)CC1 (stereo not drawn) [Compound 11] | 1.58 nM
CC(=Cc1ccccc1)CN1CCN(CC2ON=C3c4ccc(NC(=O)c5ccccc5)cc4OCC32)CC1 (stereo not drawn) [Compound 55] | 3.16 nM
CCCC(C)C(=O)Nc1cc2c(cc1OC)C1=NOC(CN3CCN(CC(C)=Cc4ccc(F)cc4)CC3)C1CO2 (stereo not drawn) [Compound 113] | 39.8 nM

The remaining lines, values ahead:

IC50 | SMILES
1.26 nM | CC(=Cc1ccc(F)cc1)CN1CCN(CC2ON=C3c4ccc(N5CCC5=O)cc4OCC32)CC1 (stereo not drawn) [Compound 69]
3.16 nM | CNCCNc1ccc2c(c1)OCC1C2=NOC1CN1CCN(CC(C)=Cc2ccc(F)cc2)CC1 (stereo not drawn) [Compound 20]
31.6 nM | CC(=Cc1ccc(F)cc1)CN1CCN(CC2ON=C3c4ccc(NCC(C)O)cc4OCC32)CC1 (stereo not drawn) [Compound 132]
5.01 nM | CC(=Cc1ccc(F)cc1)CN1CCN(CC2ON=C3c4ccc(N(C)CCNC(C)C(C)C)cc4OCC32)CC1 (stereo not drawn) [Compound 110]
50.1 nM | CCC(C)Nc1ccc2c(c1)OCC1C2=NOC1CN1CCN(CC(C)=Cc2ccc(F)cc2)CC1 (stereo not drawn) [Compound 131]
3.16 nM | CC(=Cc1ccc(F)cc1)CN1CCN(CC2ON=C3c4ccc(N(C)CCNCC5CC5)cc4OCC32)CC1 (stereo not drawn) [Compound 118]
5.01 nM | CC(=Cc1ccc(F)cc1)CN1CCN(CC2ON=C3c4ccc(N5CCNCC5)cc4OCC32)CC1 (stereo not drawn) [Compound 136]
12.6 nM | C=CC(=O)Nc1cc2c(cc1OC)C1=NOC(CN3CCN(CC(C)=Cc4ccc(F)cc4)CC3)C1CO2 (stereo not drawn) [Compound 106]
200 nM | COc1cc2c(cc1NCC1(C)CC1)OCC1C2=NOC1CN1CCN(CC(C)=Cc2ccc(F)cc2)CC1 (stereo not drawn) [Compound 128]

The molecules below were run against T3, h5-HT transporter (Homo sapiens, UniProt P31645) (assay: Radioligand binding experiment for 5-HT transporter ([3H]paroxetine)). Conditions: human platelet membranes, [3H]paroxetine 0.5 nM.
T3 construct: Human platelet membranes (Oceanix Biosciences Corporation, Hanover, Md., USA) were thawed; tissue Oceanix Biosciences Corporation; host or cells: human platelet membranes
T3 sequence (P31645 whole entry): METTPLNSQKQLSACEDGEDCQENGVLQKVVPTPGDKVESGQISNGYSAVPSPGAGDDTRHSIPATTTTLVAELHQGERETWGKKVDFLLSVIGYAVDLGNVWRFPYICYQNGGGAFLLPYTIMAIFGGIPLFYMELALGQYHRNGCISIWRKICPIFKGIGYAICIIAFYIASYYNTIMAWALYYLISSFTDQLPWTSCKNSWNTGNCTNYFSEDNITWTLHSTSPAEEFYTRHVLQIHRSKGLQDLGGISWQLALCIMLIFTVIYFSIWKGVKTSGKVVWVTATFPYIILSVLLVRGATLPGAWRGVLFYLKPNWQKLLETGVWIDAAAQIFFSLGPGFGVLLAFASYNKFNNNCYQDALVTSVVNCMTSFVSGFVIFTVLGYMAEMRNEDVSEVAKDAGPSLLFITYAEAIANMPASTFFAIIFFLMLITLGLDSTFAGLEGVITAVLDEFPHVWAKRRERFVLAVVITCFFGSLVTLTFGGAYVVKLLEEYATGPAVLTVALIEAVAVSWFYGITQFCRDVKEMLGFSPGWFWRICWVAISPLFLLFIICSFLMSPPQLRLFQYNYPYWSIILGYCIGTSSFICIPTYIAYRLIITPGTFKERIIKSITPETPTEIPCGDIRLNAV
Method: as §1
Human platelet membranes (Oceanix Biosciences Corporation, Hanover, Md., USA) were thawed, diluted in buffer (Tris-HCl 50 mM, 120 mM NaCl and 5 mM KCl) and quickly (max 3 s) homogenised with an Ultraturrax homogenizer. In a total volume of 250 μL, 50-100 μg protein was incubated with [^3H]paroxetine (NET-869) (New England Nuclear, USA) (0.5 nM final concentration) with or without competitor for 60 min at 25° C. Incubation was stopped by rapid filtration of the incubation mixture over GF/B filters, pre-wetted with 0.1% polyethyleneamine, using a Filtermatel 96 harvester (Packard, Meriden, Conn.). Filters were rinsed extensively with ice-cold buffer and radioactivity on the filters was counted in a Topcount liquid scintillation counter (Packard, Meriden, Conn.). Data were expressed as cpm. Imipramine (at 1 μM final concentration) was used to determine the non-specific binding.
as §4

SMILES | pIC50
COc1cc2c(cc1NC(=O)Nc1ccccc1)OCC1C2=NOC1CN1CCN(CC(C)=Cc2ccc(F)cc2)CC1 (stereo not drawn) [Compound 124] | 7.30
COc1cc2c(cc1NCC(C)C)OCC1C2=NOC1CN1CCN(CC(C)=Cc2ccc(F)cc2)CC1 (stereo not drawn) [Compound 116] | 7.10
CCC(C)CNc1cc2c(cc1OC)C1=NOC(CN3CCN(CC(C)=Cc4ccc(F)cc4)CC3)C1CO2 (stereo not drawn) [Compound 104] | 6.50
COc1cc2c(cc1N(C)CCN(C)C)OCC1C2=NOC1CN1CCN(C/C(C)=C/c2ccccc2)CC1 (stereo not drawn) [Compound 11] | 8.50
CC(=Cc1ccccc1)CN1CCN(CC2ON=C3c4ccc(NC(=O)c5ccccc5)cc4OCC32)CC1 (stereo not drawn) [Compound 55] | 7.60
CCCC(C)C(=O)Nc1cc2c(cc1OC)C1=NOC(CN3CCN(CC(C)=Cc4ccc(F)cc4)CC3)C1CO2 (stereo not drawn) [Compound 113] | 7.20

More lines, now with the values ahead:

pIC50 | SMILES
7.70 | CC(=Cc1ccc(F)cc1)CN1CCN(CC2ON=C3c4ccc(N5CCC5=O)cc4OCC32)CC1 (stereo not drawn) [Compound 69]
8.10 | CNCCNc1ccc2c(c1)OCC1C2=NOC1CN1CCN(CC(C)=Cc2ccc(F)cc2)CC1 (stereo not drawn) [Compound 20]
7.20 | CC(=Cc1ccc(F)cc1)CN1CCN(CC2ON=C3c4ccc(NCC(C)O)cc4OCC32)CC1 (stereo not drawn) [Compound 132]
8.30 | CC(=Cc1ccc(F)cc1)CN1CCN(CC2ON=C3c4ccc(N(C)CCNC(C)C(C)C)cc4OCC32)CC1 (stereo not drawn) [Compound 110]
7.20 | CCC(C)Nc1ccc2c(c1)OCC1C2=NOC1CN1CCN(CC(C)=Cc2ccc(F)cc2)CC1 (stereo not drawn) [Compound 131]
8.50 | CC(=Cc1ccc(F)cc1)CN1CCN(CC2ON=C3c4ccc(N(C)CCNCC5CC5)cc4OCC32)CC1 (stereo not drawn) [Compound 118]
8.10 | CC(=Cc1ccc(F)cc1)CN1CCN(CC2ON=C3c4ccc(N5CCNCC5)cc4OCC32)CC1 (stereo not drawn) [Compound 136]
7.50 | C=CC(=O)Nc1cc2c(cc1OC)C1=NOC(CN3CCN(CC(C)=Cc4ccc(F)cc4)CC3)C1CO2 (stereo not drawn) [Compound 106]
6.80 | COc1cc2c(cc1NCC1(C)CC1)OCC1C2=NOC1CN1CCN(CC(C)=Cc2ccc(F)cc2)CC1 (stereo not drawn) [Compound 128]
